Test results taken from PubChem BioAssay AID1259411 (Chemical Carcinogenesis Research Information System (CCRIS), 2018).
Active and inactive are the calls of the source. How the calls were made is not given here.

Test system: rodent carcinogenicity bioassays, tumor incidence
Test: CCRIS carcinogenicity studies
Outline: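 NCI-built, expert-reviewed records of carcinogenicity and related test outcomes (mutagenicity, tumor promotion/inhibition) compiled from published and report sources, historical span 1985-2011, not updated.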

Measured: carcinogen call

CCOC(N)=O
active: Species: HAMSTER, Route: DERMAL, Tumor Site: Type of Lesion: INTEGUMENTARY SYSTEM (SKIN), MAMMARY GLAND active; positive | Species: HAMSTER, Route: INTRAPERITONEAL, Tumor Site: Type of Lesion: INTEGUMENTARY SYSTEM (SKIN) active; positive | Species: HAMSTER, Route: ORAL, Tumor Site: Type of Lesion: FORESTOMACH, INTEGUMENTARY SYSTEM (SKIN) active; positive | Species: HAMSTER, Route: SUBCUTANEOUS, Tumor Site: Type of Lesion: ADRENAL GLAND, FORESTOMACH, INTESTINES, INTEGUMENTARY SYSTEM (SKIN), Tumor Site: Type of Lesion: ADRENAL GLAND, FORESTOMACH, INTESTINES, INTEGUMENTARY SYSTEM (SKIN) active; positive | Species: MOUSE, Route: INHALATION, Tumor Site: Type of Lesion: LUNG active; positive | Species: MOUSE, Route: INTRAPERITONEAL, Tumor Site: Type of Lesion: HEMATOPOIETIC SYSTEM (LEUKEMIA), LYMPHATIC SYSTEM: LYMPHOMA, LUNG, LIVER, HARDERIAN GLAND, OVARIES, Tumor Site: Type of Lesion: HEMATOPOIETIC SYSTEM (LEUKEMIA), LYMPHATIC SYSTEM: LYMPHOMA, LUNG, LIVER, HARDERIAN GLAND, OVARIES active; positive | Species: MOUSE, Route: INTRAPERITONEAL, Tumor Site: Type of Lesion: LUNG, LIVER active; positive | Species: MOUSE, Route: ORAL, Tumor Site: Type of Lesion: HEMATOPOIETIC SYSTEM (LEUKEMIA): LYMPHOCYTIC LEUKEMIA, LYMPHATIC SYSTEM: LYMPHOSARCOMA, MAMMARY GLAND, LUNG, LIVER, THYM, Tumor Site: Type of Lesion: HEMATOPOIETIC SYSTEM (LEUKEMIA): LYMPHOCYTIC LEUKEMIA, LYMPHATIC SYSTEM: LYMPHOSARCOMA, MAMMARY GLAND, LUNG, LIVER, THYM active; positive | Species: MOUSE, Route: SUBCUTANEOUS, Tumor Site: Type of Lesion: HARDERIAN GLAND, HEMATOPOIETIC SYSTEM (LEUKEMIA), LIVER, LUNG, Tumor Site: Type of Lesion: HARDERIAN GLAND, HEMATOPOIETIC SYSTEM (LEUKEMIA), LIVER, LUNG active; positive | Species: MOUSE, Strain/Sex: B6C3F1/FEMALE (48/GROUP), Route: ORAL, Dose: 10, 30, 90 PPM IN DRINKING WATER (STUDY DURATION: 2 YRS), Dose: 10, 30, 90 PPM IN DRINKING WATER (STUDY DURATION: 2 YRS), Tumor Site: Type of Lesion: MAMMARY GLAND: ADENOACANTHOMA, ADENOCARCINOMA, OVARY: GRANULOSA CELL TUMOR (BENIGN OR MALIGNANT), SPLEEN: HEMANGIOSARCOM, Tumor Site: Type of Lesion: MAMMARY GLAND: ADENOACANTHOMA, ADENOCARCINOMA, OVARY: GRANULOSA CELL TUMOR (BENIGN OR MALIGNANT), SPLEEN: HEMANGIOSARCOM active; positive ; marginal but not significant increases of hemangiosarcomas occurred i | Species: MOUSE, Strain/Sex: B6C3F1/MALE (48/GROUP), Route: ORAL, Dose: 10, 30, 90 PPM IN DRINKING WATER (STUDY DURATION: 2 YRS), Dose: 10, 30, 90 PPM IN DRINKING WATER (STUDY DURATION: 2 YRS), Tumor Site: Type of Lesion: HEART: HEMANGIOSARCOMA, FORESTOMACH: SQUAMOUS CELL PAPILLOMA OR CARCINOMA (COMBINED), SKIN: SQUAMOUS CELL PAPILLOMA OR C, Tumor Site: Type of Lesion: HEART: HEMANGIOSARCOMA, FORESTOMACH: SQUAMOUS CELL PAPILLOMA OR CARCINOMA (COMBINED), SKIN: SQUAMOUS CELL PAPILLOMA OR C active; positive | Species: MOUSE, Strain/Sex: B6C3F1/MALE, FEMALE (48/GROUP), Route: ORAL, Dose: 10, 30, 90 PPM IN DRINKING WATER (STUDY DURATION: 2 YRS), Dose: 10, 30, 90 PPM IN DRINKING WATER (STUDY DURATION: 2 YRS), Tumor Site: Type of Lesion: LIVER: HEMANGIOSARCOMA, HEPATOCELLULAR ADENOMA OR CARCINOMA (COMBINED), LUNG: ADENOMA OR CARCINOMA (COMBINED): HARDERIAN active; positive | Species: MOUSE, Strain/Sex: B6C3F1/MALE, Route: INTRAPERITONEAL, Dose: 0, 125 UG/G BW IN 10 µL TRIOCTANOIN ONCE (STUDY DURATION: 9 MO), Tumor Site: Type of Lesion: LIVER: HEPATOMA active; positive | Species: MOUSE, Strain/Sex: B6C3F1/MALE, Route: ORAL, Dose: 0, 0.6, 3, 6, 60, 600 PPM IN DRINKING WATER FOR 70 WK (STUDY DURATION: 70 WK), Dose: 0, 0.6, 3, 6, 60, 600 PPM IN DRINKING WATER FOR 70 WK (STUDY DURATION: 70 WK), Tumor Site: Type of Lesion: LUNG: ALVEOLAR/BRONCHIOLAR CARCINOMA, ALVEOLAR/BRONCHIOLAR ADENOMA, LIVER: ANGIOSARCOMA, HEMANGIOMA active; positive | Species: MOUSE, Strain/Sex: C57BL, Route: INTRAPERITONEAL, Dose: 1.00 MG/G 10 TIMES AT WEEKLY INTERVALS, Tumor Site: Type of Lesion: THYMUS GLAND: LYMPHOSARCOMA, LUNG: ADENOMA active; positive | Species: MOUSE, Strain/Sex: CTM/MALE,FEMALE, Route: ORAL, Dose: 0, 0.4% IN DRINKING WATER, 1 OR 2 10-D TREATMENTS OR 1, 2 OR 3 5-D TREATMENTS WITH 10-D INTERVALS BETWEEN TREATMENTS, Dose: 0, 0.4% IN DRINKING WATER, 1 OR 2 10-D TREATMENTS OR 1, 2 OR 3 5-D TREATMENTS WITH 10-D INTERVALS BETWEEN TREATMENTS, Tumor Site: Type of Lesion: LUNG: ADENOMA, LYMPHOSARCOMA active; positive | Species: MOUSE, Strain/Sex: HR/HR/MALE, FEMALE, Route: DERMAL, Dose: 0, 10, 20, 40% IN 200 µL ACETONE 2/WK FOR STUDY DURATION (STUDY DURATION: 56-60 WK), Dose: 0, 10, 20, 40% IN 200 µL ACETONE 2/WK FOR STUDY DURATION (STUDY DURATION: 56-60 WK), Tumor Site: Type of Lesion: SKIN: CARCINOMA, PAPILLOMA, LUNG: ADENOMA active; positive | Species: MOUSE, Strain/Sex: HR/HR/MALE, FEMALE, Route: DERMAL, Dose: 0, 15, 30, 75% IN PROPYLENE GLYCOL 2/WK FOR STUDY DURATION (STUDY DURATION: 56-60 WK), Dose: 0, 15, 30, 75% IN PROPYLENE GLYCOL 2/WK FOR STUDY DURATION (STUDY DURATION: 56-60 WK), Tumor Site: Type of Lesion: SKIN: CARCINOMA, PAPILLOMA, LUNG: ADENOMA active; positive | Species: MOUSE, Strain/Sex: ICR/FEMALE, Route: INHALATION, Dose: 0, 0.25 UG/ML AIR FOR 0.25 D (TOTAL DOSE 0.25 UG/ML/D) (STUDY DURATION: 5 MO), Tumor Site: Type of Lesion: LUNG: TUMOR, HEMATOPOIETIC SYSTEM: LEUKEMIA active; positive | Species: MOUSE, Strain/Sex: ICR/FEMALE, Route: INHALATION, Dose: 0, 0.25 UG/ML AIR FOR 3 D (TOTAL DOSE 0.75 UG/ML/D) (STUDY DURATION: 5 MO), Tumor Site: Type of Lesion: LUNG: TUMOR, HEMATOPOIETIC SYSTEM: LEUKEMIA active; positive
